Reference: patent US20220127232A1, “HISTONE ACETYLTRANSFERASE MODULATORS AND COMPOSITIONS AND USES THEREOF” (The Trustees of Columbia University in the City of New York, priority 2019, published 2022)
Where a name gives a salt, the structure may show the parent alone. Read-outs that look alike come from different tables or passages of the source.

Experiments:
[1] = biological target: p300 (Homo sapiens, UniProt Q09472); test: Histone Acetyltransferase (HAT) in vitro acetylation assay, western blot of H3K27ac / H3K18ac; type: biochemical; details: for H3-Lys 18 EC50 / EC50 / H3-Lys 27 EC50: EC50 for activators; for H3-Lys 27 IC50 / H3-Lys 18 IC50: IC50 for inhibitors
Description: The aim of the in vitro acetylation assay is to measure the enzymatic activity of the various compounds towards p300.
First, the drug is prepared:
Second, dilute p300 in AM1 buffer to a concentration of 40 ng/μL (final concentration in the reaction 20 ng/μL). This is accomplished by diluting 1 μL of p300 (at 0.4 μg/μL) into […] of AM1 buffer.
Third, prepare the Master Mix. Prepare the Master Mix in low protein binding tubes (ThermoFisher Cat. No. 90410), 20 μL system.
Incubate reactions at 30° C. for 30 minutes.
Incubate reactions at 30° C. for 1 hour.
Fourth, perform the western blot assay. • Add 6.7 μL of Laemmli Sample Buffer 4× (Bio-Rad Laboratories Cat. No. 161-0737) for each reaction and boil samples at 95° C. for 5 min. • Charge 10 μL for each sample in 2 Tris Glycine 4-15% gels (Bio-Rad Laboratories Cat. No. 456-1086). Running Buffer: Tris-Glycine 1× (pour in the cell up to the writing “2 gels”). • Run at 90 V for 1 hour (until the gel front reaches the green line of cell). • Semi-dry transfer with Trans-Blot® Turbo™ Blotting System from Bio-Rad Laboratories (Trans-Blot® Turbo™ RTA midi PVDF transfer kit Cat. No1704275). • Activate PVDF membrane in methanol for 5 minutes and then wet in Trans-Blot® Turbo™ transfer buffer. • Wet stacks in transfer buffer. • Transfer at 23 V 1.3 A for 7 minutes. • Blocking buffer: 5% Non-Fat milk in TBST (tween 0.1%) 1 hour at room temperature. • Cut the membranes to get Ac-His 3 at 17 kDa and p300 at 300 kDa. • Incubate with primary antibodies overnight at 4° C. • The day after, make 3 washes in TBST (Tween 0.1%) of 10 minutes. • Incubate with secondary antibody at room temperature for 1 hour. • Make 3 washes in TBST (Tween 0.1%) of 5 minutes. • Incubate membranes with ECL (SuperSignal West Dura Extended Duration Substrate from ThermoFisher) for 5 minutes at room temperature. • Acquire the image with ChemiDoc Odyssey Fc 2 minutes.
To detect total H3 (loading control), strip the membranes with Restore™ Western Blot Stripping Buffer according to the manufacturer protocol.
Various compounds were tested for enzymatic activity with respect to Lys 18 and Lys 27. EC50 is indicated for Activators and IC50 for inhibitors respectively.
FIGS. 1A to 25B are graphs showing the lysine residue acetylation as a function of concentration for the compounds set forth in Table 3. The shaded area corresponds to the average values of lysine residue acetylation (continuous line) and their standard error range measured in the absence of compound and DMSO. The number of replicates is represented by “n”.

[2] = Stability in human liver microsomes; type: in vitro ADME; details: for microsomal CLint at 1 μM / half-life at 1 μM: both sexes, human, liver microsomes, pH 7.4, human liver microsomes
Description: Some compounds were tested for stability in human liver microsomes as shown below in Table 2.
Mixed-gender human liver microsomes (Lot #1010420) were purchased from XenoTech. The reaction mixture, minus NADPH, was prepared as described below. The test article was added into the reaction mixture at a final concentration of 1 μM. The control compound, testosterone, was run simultaneously with the test article in a separate reaction. An aliquot of the reaction mixture (without cofactor) was equilibrated in a shaking water bath at 37° C. for 3 minutes. The reaction was initiated by the addition of the cofactor, and the mixture was incubated in a shaking water bath at 37° C. Aliquots (100 μL) were withdrawn at 0, 10, 20, 30, and 60 minutes. Test article and testosterone samples were immediately combined with 400 μL of ice-cold 50/50 acetonitrile (ACN)/H2O containing 0.1% formic acid and internal standard to terminate the reaction. The samples were then mixed and centrifuged to precipitate proteins. All samples were assayed by LC-MS/MS using electrospray ionization. Analytical conditions are outlined in Appendix 1. The peak area response ratio (PARR) to internal standard was compared to the PARR at time 0 to determine the percent remaining at each time point. Half-lives and clearance were calculated using GraphPad software, fitting to a single-phase exponential decay equation.
Liver Microsomes 0.5 mg/mL NADPH (cofactor) 1 mM
Potassium Phosphate, pH 7.4 100 mM
Intrinsic clearance (CLint) was calculated based on CLint=k/P, where k is the elimination constant and P is the protein concentration in the incubation.

[3] = compound in DMSO, read-out: H3-Lys 27 EC50
[4] = compound in DMSO, read-out: H3-Lys 18 EC50

Chain of p300 (Q09472 whole entry, species assumed): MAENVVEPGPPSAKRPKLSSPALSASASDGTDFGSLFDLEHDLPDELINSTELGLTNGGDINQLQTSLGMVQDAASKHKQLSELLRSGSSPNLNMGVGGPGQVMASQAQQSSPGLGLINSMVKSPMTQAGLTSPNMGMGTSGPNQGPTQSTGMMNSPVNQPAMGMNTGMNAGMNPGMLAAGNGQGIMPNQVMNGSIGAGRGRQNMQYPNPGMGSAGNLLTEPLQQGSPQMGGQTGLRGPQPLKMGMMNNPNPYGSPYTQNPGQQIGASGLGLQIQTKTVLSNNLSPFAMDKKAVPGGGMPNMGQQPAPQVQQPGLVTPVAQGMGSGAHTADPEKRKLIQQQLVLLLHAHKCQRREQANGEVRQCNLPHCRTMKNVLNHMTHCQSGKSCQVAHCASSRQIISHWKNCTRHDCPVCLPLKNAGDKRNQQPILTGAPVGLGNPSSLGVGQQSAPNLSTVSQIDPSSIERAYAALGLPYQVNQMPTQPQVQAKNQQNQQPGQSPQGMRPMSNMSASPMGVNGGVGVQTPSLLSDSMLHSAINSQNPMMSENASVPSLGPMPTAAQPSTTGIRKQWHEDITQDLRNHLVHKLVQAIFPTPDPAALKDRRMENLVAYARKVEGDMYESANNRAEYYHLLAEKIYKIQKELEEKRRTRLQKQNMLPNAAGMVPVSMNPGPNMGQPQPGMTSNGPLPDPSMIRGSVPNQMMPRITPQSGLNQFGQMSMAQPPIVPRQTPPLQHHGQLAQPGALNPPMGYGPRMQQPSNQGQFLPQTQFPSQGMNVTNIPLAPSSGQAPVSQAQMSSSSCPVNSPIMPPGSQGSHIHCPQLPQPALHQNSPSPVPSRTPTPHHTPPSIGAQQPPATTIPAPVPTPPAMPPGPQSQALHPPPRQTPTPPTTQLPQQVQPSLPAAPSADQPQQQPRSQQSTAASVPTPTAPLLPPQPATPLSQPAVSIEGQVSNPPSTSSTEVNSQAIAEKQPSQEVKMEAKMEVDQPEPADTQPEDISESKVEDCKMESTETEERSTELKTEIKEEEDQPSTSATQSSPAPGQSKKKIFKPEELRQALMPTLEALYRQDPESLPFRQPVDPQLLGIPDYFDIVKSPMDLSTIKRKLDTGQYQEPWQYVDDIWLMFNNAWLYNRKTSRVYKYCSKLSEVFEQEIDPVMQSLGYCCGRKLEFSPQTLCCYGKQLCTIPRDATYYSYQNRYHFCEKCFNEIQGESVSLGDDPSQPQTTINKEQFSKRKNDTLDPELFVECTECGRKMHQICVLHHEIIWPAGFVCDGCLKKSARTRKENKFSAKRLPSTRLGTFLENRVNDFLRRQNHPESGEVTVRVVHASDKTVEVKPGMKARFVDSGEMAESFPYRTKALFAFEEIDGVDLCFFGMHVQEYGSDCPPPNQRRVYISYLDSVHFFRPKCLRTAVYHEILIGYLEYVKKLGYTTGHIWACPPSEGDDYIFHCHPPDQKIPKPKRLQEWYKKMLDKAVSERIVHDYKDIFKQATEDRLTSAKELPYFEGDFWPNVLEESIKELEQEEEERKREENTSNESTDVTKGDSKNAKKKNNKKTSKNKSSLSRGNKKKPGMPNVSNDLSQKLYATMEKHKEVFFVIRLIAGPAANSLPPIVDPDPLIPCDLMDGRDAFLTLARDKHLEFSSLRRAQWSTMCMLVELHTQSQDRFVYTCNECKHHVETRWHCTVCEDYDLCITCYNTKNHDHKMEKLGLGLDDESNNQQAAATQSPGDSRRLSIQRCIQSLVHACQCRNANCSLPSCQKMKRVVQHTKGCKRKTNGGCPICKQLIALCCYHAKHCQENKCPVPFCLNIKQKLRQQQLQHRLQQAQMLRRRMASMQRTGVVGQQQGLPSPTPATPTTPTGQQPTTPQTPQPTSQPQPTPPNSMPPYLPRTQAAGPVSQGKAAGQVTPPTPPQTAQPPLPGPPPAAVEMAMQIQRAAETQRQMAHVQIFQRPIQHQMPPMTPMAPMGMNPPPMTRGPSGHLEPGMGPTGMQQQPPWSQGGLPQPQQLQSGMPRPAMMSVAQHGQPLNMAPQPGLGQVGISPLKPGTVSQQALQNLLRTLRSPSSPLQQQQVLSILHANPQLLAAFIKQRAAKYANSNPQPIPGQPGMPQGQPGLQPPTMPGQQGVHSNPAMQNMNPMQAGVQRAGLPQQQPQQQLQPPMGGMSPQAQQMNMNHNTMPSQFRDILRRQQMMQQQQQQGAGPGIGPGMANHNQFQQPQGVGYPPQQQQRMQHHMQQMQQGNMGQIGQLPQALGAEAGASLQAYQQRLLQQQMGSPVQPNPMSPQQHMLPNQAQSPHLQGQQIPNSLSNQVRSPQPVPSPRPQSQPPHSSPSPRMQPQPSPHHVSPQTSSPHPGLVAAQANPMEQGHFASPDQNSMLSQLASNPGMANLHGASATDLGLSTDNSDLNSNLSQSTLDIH

| Compound | H3-Lys 18 EC50 ([1]; compound in DMSO) | H3-Lys 27 EC50 ([1]; compound in DMSO) | H3-Lys 27 IC50 ([1]; compound in DMSO) | H3-Lys 18 IC50 ([1]; compound in DMSO) | further results |
| --- | --- | --- | --- | --- | --- |
| CCOc1cccc(OCCN(C)C)c1C(=O)Nc1ccc(Cl)cn1 [RA013917] | NO ACTIVITY |  |  |  | EC50 [1, 3]: 0.0159 µM |
| CCOc1cccc(OCCN(C)C)c1C(=O)Nc1cccc(C(F)(F)F)c1 [RA010168] |  | NO ACTIVITY | NO ACTIVITY |  |  |
| CCOc1cccc(N(C)CCN(C)C)c1C(=O)Nc1ccc(Cl)c(C(F)(F)F)c1 [RA010163] | NO ACTIVITY | NO ACTIVITY | NO ACTIVITY | NO ACTIVITY |  |
| CCOc1ccccc1C(=O)N(CCN(C)C)c1ccc(Cl)c(C(F)(F)F)c1 [RA013886] | NO ACTIVITY | NO ACTIVITY | NO ACTIVITY | NO ACTIVITY |  |
| CCOc1cccc(OCC)c1C(=O)Nc1ccc(Cl)c(C(F)(F)F)c1 [RA010171] |  |  |  |  | EC50 [1, 4]: 0.141 µM |
| COc1cccc(OCCN(C)C)c1C(=O)Nc1ccc(Cl)c(C(F)(F)F)c1 [RA010900 HCl] | NO ACTIVITY | NO ACTIVITY | NO ACTIVITY | NO ACTIVITY | EC50 ([1]; compound in H2O, read-out: H3-Lys 18 EC50): 0.117 µM; EC50 ([1]; compound in H2O, read-out: H3-Lys 27 EC50): 0.044 µM |
| CCCOc1cccc(O)c1C(=O)Nc1ccc(Cl)c(C(F)(F)F)c1 [RA013931] | NO ACTIVITY | NO ACTIVITY | NO ACTIVITY | NO ACTIVITY |  |
| CCOc1cccc(O)c1C(=O)Nc1cccc(C(F)(F)F)c1 [RA010160] |  |  |  |  | EC50 [1, 4]: 0.146 µM; EC50 [1, 3]: 0.533 µM |
| CCOc1cccc(OCCNC)c1C(=O)Nc1ccc(Cl)c(C(F)(F)F)c1 [RA013894] | NO ACTIVITY | NO ACTIVITY | NO ACTIVITY | NO ACTIVITY |  |
| CCOc1cccc(OCCN(C)C)c1NC(=O)c1ccc(Cl)c(C(F)(F)F)c1 [RA013919] |  | NO ACTIVITY | NO ACTIVITY |  |  |
| CC(C)Oc1cccc(OCCN(C)C)c1C(=O)Nc1ccc(Cl)c(C(F)(F)F)c1 [RA010143 HCl] |  | NO ACTIVITY | NO ACTIVITY |  |  |
| CN(C)CCOc1cccc(O)c1C(=O)Nc1ccc(Cl)c(C(F)(F)F)c1 [RA013905] | NO ACTIVITY | NO ACTIVITY | NO ACTIVITY | NO ACTIVITY |  |
| CCOc1cccc(OCCOC)c1C(=O)Nc1ccc(Cl)c(C(F)(F)F)c1 [RA010155] |  | NO ACTIVITY | NO ACTIVITY |  | EC50 [1, 4]: 0.129 µM |
| CCOc1cccc(OCCN(C)C)c1C(=O)Nc1cccc(C(F)(F)F)c1 [RA013928] | NO ACTIVITY |  |  | NO ACTIVITY |  |
| CCOc1cccc(OCCO)c1C(=O)Nc1ccc(Cl)c(C(F)(F)F)c1 [RA010146] | NO ACTIVITY | NO ACTIVITY | NO ACTIVITY | NO ACTIVITY |  |
| CN(C)CCOc1cccc(F)c1C(=O)Nc1ccc(Cl)c(C(F)(F)F)c1 [RA010162] | NO ACTIVITY | NO ACTIVITY | NO ACTIVITY | NO ACTIVITY |  |
| CCCOc1cccc(OCCN(C)C)c1C(=O)Nc1ccc(Cl)c(C(F)(F)F)c1 [RA013938] | NO ACTIVITY | NO ACTIVITY | NO ACTIVITY | NO ACTIVITY |  |
| CCOc1cccc(OCCN(C)C)c1-c1nc2cc(Cl)c(C(F)(F)F)cc2[nH]1 [RA013012] | NO ACTIVITY | NO ACTIVITY | NO ACTIVITY | NO ACTIVITY |  |
| CCOc1ccnc(OCCN(C)C)c1C(=O)Nc1ccc(Cl)c(C(F)(F)F)c1 [RA013005] |  |  |  |  | EC50 [1, 4]: 0.0765 µM; EC50 [1, 3]: 0.594 µM; microsomal CLint at 1 μM ([2]; calculated value printed in parentheses behind the bound, read-out: CLint, value in parentheses): 188 µL/min/mg; half-life at 1 μM ([2]; fitted value printed in parentheses behind the bound, read-out: Half-life, value in parentheses): 7.36 min; microsomal CLint at 1 μM ([2]; read-out: CLint): > 139 µL/min/mg; half-life at 1 μM ([2]; read-out: Half-life): < 10 min; % Remaining of Initial (n = 1) 0 min ([2]; human liver microsomes, test article 1 μM, 0 min): 100%; % Remaining of Initial (n = 1) 10 min ([2]; human liver microsomes, test article 1 μM, 10 min): 40.5%; % Remaining of Initial (n = 1) 20 min ([2]; human liver microsomes, test article 1 μM, 20 min): 14.1%; % Remaining of Initial (n = 1) 30 min ([2]; human liver microsomes, test article 1 μM, 30 min): 4.97%; % Remaining of Initial (n = 1) 60 min ([2]; human liver microsomes, test article 1 μM, 60 min): <1.00% |
